According to US5071848A, “Tricyclic quinoline antineoplastic agents” (Abbott Laboratories, priority 1989, dated 1991):
In brackets after ≈: the same amount, converted by molar mass.

What was measured:
[1] = test system: DNA topoisomerase II; test: DNA Breakage Assay: topoisomerase II-mediated DNA breakage (linearized 32P-labeled PBR 322 plasmid, agarose gel); type: biochemical, calf; set-up: key to Topoisomerase II-mediated DNA breakage, extent of breakage: SB: strong breakage; MB: moderate breakage; WB: weak breakage; conditions: for Topoisomerase II-mediated DNA breakage, extent of breakage: at the concentration given; for Topoisomerase II-mediated DNA breakage, Concentration: concentration of compound which cleaves the DNA to smaller fragments, 30 minutes incubation
Description: Antitumor activity was assayed using the DNA Breakage Assay described below.
The DNA breakage assay requires two major reagents: DNA topoisomerase II and radiolabeled DNA. DNA topoisomerase II (topo II) was isolated from calf thymus as described by B. D. Holligan, et al. in J. Biol. Chem., 260, 2475-2482 (1985). Pure enzyme or partially purified extracts enriched in topo II activity may be used. PBR 322 plasmid was used as the DNA substrate. This plasmid, which is isolated in the closed circular form, is first linearized using, a restriction enzyme which cuts the plasmid in only one place. The newly exposed ends of the plasmid are then labeled with the radionuclide, 32P, using standard techniques described by T. Maniatis, et al. in "Molecular Cloning", Cold Spring Harbor Press, p. 115 (1982).
The enzyme and the radiolabeled DNA are added together first, then drug is added. After an incubation period of 30 minutes, the mixtures are quenched using 1% SDS. The mixtures are then subjected to agarose gel electrophoresis which separates the full length, linear substrate DNA from any small fragments that might be formed as a consequence of drug action. Smaller fragments run with a higher mobility. The distribution of the DNA species in the gel is assessed by autoradiography as described by T. Maniatis, et al. in "Molecular Cloning", Cold Spring Harbor Press, p. 115 (1982).
DNA breakage activity is assessed based on the level of substrate lost, the level of DNA appearing as smaller pieces running faster in the gel, and the distribution of these smaller pieces in the gel. The last criterion is important since drug-induced DNA cleavage that is enzyme-mediated fragmentation results in specific banding patterns due to the fact that the enzyme binds to specific sequences along the DNA molecule. A definite banding pattern is thus indicative of topo II-mediated cleavage and correlates well with anti-tumor activity.

[2] = test system: Hela cells; test: In vitro cytotoxicity assay (three day MTT microtiter assay), Hela; type: cell-based; conditions: Homo sapiens, 72 h; Hela cells, three days, MTT; read-out: In vitro tumor cell cytotoxicity (IC50), Hela
Description: (§1) IC50 's were measured in a colorimetric assay for cytotoxic activity against cultured cells according to the protocol described below:
(§2) A three day microtiter assay is used to measure the growth inhibition of cultured cells exposed to a range of drug concentrations. Metabolic activity is measured by the cell's ability to reduce the tetrazolium dye, MTT (3-(4,5-dimethylthiazol-2-yl)-2,5-diphenyltetrazolium bromide) to a quantifiable colored end-product, which absorbs at 570 nm in the visible spectrum. Surviving cells reduce the MTT dye.
(§3) Test compounds are dissolved in dimethyl sulfoxide (DMSO) and diluted, first with Earle's Balanced Salt Solution, followed by culture medium, to twice the highest concentration of compound to be tested. From this concentrated stock, two-fold serial dilutions are prepared in 96-well microtiter trays, each well containing twice the desired final concentration of compound. Each concentration is tested in triplicate and compared to triplicate drug-free controls.
(§4) The cells are grown in the same medium used for diluting the compounds. After harvesting by trypsinization*, viable cell counts are determined and cell density is adjusted to 25,000 cells/mL. Inoculum (0.1 mL), containing the cells, is then added to each well for a final concentration of 2,500 cells per well. Addition of the inoculum dilutes the test compounds to the desired final concentration.
(§5) *Adherent cells are harvested by trypsinization as follows:
(§6) 1. Remove the medium by aspiration.
(§7) 2. Rinse cell monolayer twice with Earle's Balanced Salt Solution.
(§8) 3. Add trypsin (0.05%)/EDTA (0.53 mM). For each 25 cm^2 use approximately 0.2 mL of solution, tilt to cover the monolayer, then withdraw trypsin leaving only a thin film of solution. Incubate at room temperature until cell monolayer detaches.
(§9) 4. When the cells have detached as determined by visual and/or microscopic observation, add medium containing fetal calf serum to stop the action of the trypsin and resuspend the cells. Triturate to aid dissociation of cell clumps.
(§10) 5. Determine the number of cells per milliliter by electronic cell counter (e.g. Coulter Counter) or by mixing an aliquot of cell suspension with Trypan Blue (0.4% in normal saline) and counting the viable cells using a hemacytometer.
(§11) Microtiter trays are incubated for three days at 36° C. in a humidified atmosphere containing 5% carbon dioxide.
(§12) After three days, 20 microtiters of 5 mg/mL MTT in phosphate-buffered saline solution is added to each well. Trays are returned to the incubator for two to four hours to allow the surviving cells to reduce the dye. Medium and unreduced dye are removed by aspiration. DMSO is added to each well to dissolve the water insoluble, colored end product of the dye reduction so that it can be measured spectrophotometrically at 570 nm.

[3] = test system: P388 Leukemia; test: In vivo antitumor activity, P388 Leukemia, increased lifespan; set-up: species or system BDF1 mice; conditions: IP, day 1 to day 5, survival monitored 30 days
Description: The in vivo data presented in Table 7 was determined in BDF1 mice for two murine cancer models, using 6 to 10 animals per test group. In the case of Lewis Lung carcinoma (LL) the mice are inoculated subcutaneously (SC) in the axillary region with a puncture in the inguinal area with the tumor on day 0. The compound being tested is administered intraperitoneally (IP) from day 1 to day 9 for a total of nine injections. The tumors are weighed on day 14 and the weight inhibition expressed as the median weight ratio of treated (T) to control (C) tumors. In the case of P388 Leukemia cells, a suspension of diluted ascites fluid (0.1 mL) containing 1×10^6 cells is implanted IP into the mice on day 0 and the compound being tested is administered IP from day 1 to day 5 for a total of five injections. Survival was monitored for 30 days and the increased lifespan expressed as median survival time of treated (T) to control (C) mice.

[4] = test system: P388.D1 leukemia cell line; test: In vitro cytotoxicity assay (three day MTT microtiter assay), P388.D1; type: cell-based; conditions: Mus musculus, P388D1, 72 h, read-out: In vitro tumor cell cytotoxicity (IC50), P388.D1
Description: The cytotoxity of the compounds of the present invention is illustrated in Table 6. IC50 's were measured in a colorimetric assay for cytotoxic activity against cultured cells according to the protocol described below:
as §2, §3, §4, §5, §6, §7, §8, §9, §10, §11
After three days, 20 microtiters of 5 mg/mL MTT in phosphate-buffered saline solution is added to each well. Trays are returned to the incubator for two to four hours to allow the surviving cells to reduce the dye. Medium and unreduced dye are removed by aspiration. DMSO is added to each well to dissolve the water insoluble, colored end product of the dye reduction so that it can be measured spectrophotometrically at 570 nm. The IC50 is determined as the concentration of compound tested required to reduce the absorbance at 570 nm to 50% of non-drug treated control values.
^c P388 D1 is a leukemia cell line.

[5] = test system: A549 cell line; test: In vitro cytotoxicity assay (three day MTT microtiter assay), A549; type: cell-based; conditions: Homo sapiens, 72 h; A549, three days, MTT; read-out: In vitro tumor cell cytotoxicity (IC50), A549
Description: as §1, §2, §3, §4, §5, §6, §7, §8, §9, §10, §11, §12

## O=c1[nH]sc2c1c(=O)c1cc(F)c(N3CCOCC3)c(F)c1n2C1CC1 [Example 1, 9-Cyclopropyl-6,8-difluoro-7-(1-morpholino)-2,3,4,9-tetrahydroisothiazolo[5,4-b]quinoline-3,4-dione]
[1]
  Topoisomerase II-mediated DNA breakage, extent of breakage: SB
  Topoisomerase II-mediated DNA breakage, Concentration: 32 µg/mL
[2]
  IC50: 7 µg/mL (≈ 18.5 µM)
[3]; 31.25 mg/kg
  P388 Leukemia % T/C, median lifespan of treated compared to control mice: 104%
[3]; 62.5 mg/kg
  P388 Leukemia % T/C, median lifespan of treated compared to control mice: 100%
[3]; 125 mg/kg
  P388 Leukemia % T/C, median lifespan of treated compared to control mice: 108%
[3]; 250 mg/kg
  P388 Leukemia % T/C, median lifespan of treated compared to control mice: 108%

## O=c1[nH]sc2c1c(=O)c1cc(F)c(N3CCCNCC3)c(F)c1n2C1CC1 [Example 7]
[4]
  IC50: 0.2 µg/mL (≈ 0.51 µM)
[1]
  Topoisomerase II-mediated DNA breakage, extent of breakage: SB
  Topoisomerase II-mediated DNA breakage, Concentration: 32 µg/mL

## O=c1[nH]sc2c1c(=O)c1cc(F)c(NC3CCN(Cc4ccccc4)CC3)c(F)c1n2C1CC1 [Example 13]
[2]
  IC50: 0.55 µg/mL (≈ 1.14 µM)

## O=c1[nH]sc2c1c(=O)c1cc(F)c(N3CCC(O)C3)cc1n2C1CC1 (stereo not drawn) [Example 23]
[1]
  Topoisomerase II-mediated DNA breakage, extent of breakage: WB
  Topoisomerase II-mediated DNA breakage, Concentration: 32 to 128 µg/mL

## CCn1c2cc3c(cc2c(=O)c2c(=O)[nH]sc21)OCO3 [Example 29, 9-Ethyl-6,7-methylenedioxy-2,3,4,9-tetrahydroisothiazolo[5,4-b]quinoline-3,4-dione]
[1]
  Topoisomerase II-mediated DNA breakage, extent of breakage: WB
  Topoisomerase II-mediated DNA breakage, Concentration: 128 µg/mL

## CN1CCN(c2c(F)cc3c(=O)c4c(=O)[nH]sc4n(C4CC4)c3c2F)CC1 [Example 4]
[1]
  Topoisomerase II-mediated DNA breakage, extent of breakage: SB
  Topoisomerase II-mediated DNA breakage, Concentration: 32 µg/mL
[2]
  IC50: 1.3 µg/mL (≈ 3.31 µM)

## CNC1CCN(c2cc3c(cc2F)c(=O)c2c(=O)[nH]sc2n3C2CC2)C1 (stereo not drawn) [Example 25]
[1]
  Topoisomerase II-mediated DNA breakage, extent of breakage: WB
  Topoisomerase II-mediated DNA breakage, Concentration: 64 µg/mL

## O=c1[nH]sc2c1c(=O)c1cc(F)c(N3CCNCC3)cc1n2C1CC1 [Example 19, 9-Cyclopropyl-6-fluoro-7-(1-piperazinyl)-2,3,4,9-tetrahydroisothiazolo[5,4-b]quinoline-3,4-dione]
[1]
  Topoisomerase II-mediated DNA breakage, extent of breakage: MB
  Topoisomerase II-mediated DNA breakage, Concentration: 64 µg/mL

## O=c1[nH]sc2c1c(=O)c1cc(F)c(N3CCSCC3)c(F)c1n2C1CC1 [Example 6]
[5]
  IC50: 12.5 µg/mL (≈ 31.6 µM)
[4]
  IC50: 6.3 µg/mL (≈ 15.9 µM)
[1]
  Topoisomerase II-mediated DNA breakage, extent of breakage: SB
  Topoisomerase II-mediated DNA breakage, Concentration: 32 µg/mL

## O=c1[nH]sc2c1c(=O)c1cc(F)c(N3CCCC(O)C3)c(F)c1n2C1CC1 (stereo not drawn) [Example 9]
[5]
  IC50: 3.9 µg/mL (≈ 9.91 µM)
[4]
  IC50: 2.05 µg/mL (≈ 5.21 µM)
[1]
  Topoisomerase II-mediated DNA breakage, extent of breakage: SB
  Topoisomerase II-mediated DNA breakage, Concentration: 32 µg/mL

## O=c1[nH]sc2c1c(=O)c1cc(F)c(N3CCCCC3)c(F)c1n2C1CC1 [Example 8]
[1]
  Topoisomerase II-mediated DNA breakage, extent of breakage: MB
  Topoisomerase II-mediated DNA breakage, Concentration: 32 µg/mL
[2]
  IC50: 3.9 µg/mL (≈ 10.3 µM)

## NCC1CCN(c2c(F)cc3c(=O)c4c(=O)[nH]sc4n(C4CC4)c3c2F)C1 (stereo not drawn) [Example 12]
[5]
  IC50: 0.3 µg/mL (≈ 0.764 µM)
[4]
  IC50: < 0.05 µg/mL
[1]
  Topoisomerase II-mediated DNA breakage, extent of breakage: SB
  Topoisomerase II-mediated DNA breakage, Concentration: 32 µg/mL

## O=c1[nH]sc2c1c(=O)c1cc(F)c(N3CCCC3)c(F)c1n2C1CC1 [Example 32]
[1]
  Topoisomerase II-mediated DNA breakage, extent of breakage: WB
  Topoisomerase II-mediated DNA breakage, Concentration: 64 µg/mL

## CCn1c2s[nH]c(=O)c2c(=O)c2cc(F)c(N3CCN(C)CC3)c(F)c21 [Example 16]
[1]
  Topoisomerase II-mediated DNA breakage, extent of breakage: MB
  Topoisomerase II-mediated DNA breakage, Concentration: 32 to 64 µg/mL

## CCn1c2s[nH]c(=O)c2c(=O)c2cc(F)c(N3CCNC(C)C3)c(F)c21 (stereo not drawn) [Example 15]
[1]
  Topoisomerase II-mediated DNA breakage, extent of breakage: MB
  Topoisomerase II-mediated DNA breakage, Concentration: 128 µg/mL

## CCn1c2s[nH]c(=O)c2c(=O)c2cc(F)c(N3CCC(N)C3)c(F)c21 (stereo not drawn) [Example 17]
[1]
  Topoisomerase II-mediated DNA breakage, extent of breakage: WB
  Topoisomerase II-mediated DNA breakage, Concentration: 32 to 64 µg/mL

## CC1CN(c2cc3c(cc2F)c(=O)c2c(=O)[nH]sc2n3C2CC2)CCN1C (stereo not drawn) [Example 22]
[1]
  Topoisomerase II-mediated DNA breakage, extent of breakage: WB
  Topoisomerase II-mediated DNA breakage, Concentration: 128 µg/mL

## O=c1[nH]sc2c1c(=O)c1cc(F)c(N3CCN(CCO)CC3)c(F)c1n2C1CC1 [Example 5]
[1]
  Topoisomerase II-mediated DNA breakage, extent of breakage: MB
  Topoisomerase II-mediated DNA breakage, Concentration: 64 µg/mL
[2]
  IC50: 4 µg/mL (≈ 9.47 µM)
[3]; 2.5 mg/kg
  P388 Leukemia % T/C, median lifespan of treated compared to control mice: 125%
[3]; 5 mg/kg
  P388 Leukemia % T/C, median lifespan of treated compared to control mice: 129%
[3]; 10 mg/kg
  P388 Leukemia % T/C, median lifespan of treated compared to control mice: 142%
[3]; 12.5 mg/kg
  P388 Leukemia % T/C, median lifespan of treated compared to control mice: 117%
